Experimental data as given in patent US8912121B2, “Herbicidal compositions comprising 4-amino-3-chloro-5-fluoro-6-(4-chloro-2-fluoro-3-methoxyphenyl)pyridine-2-carboxylic acid or a derivative thereof and certain PS II inhibitors” (Dow Agrosciences LLC, priority 2012, dated 2014).

Columns and labels:
[1] = test system: IPOHE (Ipomoea hederacea, ivyleaf morningglory); assay: Postemergence foliar-applied mixtures, direct seeded rice, greenhouse; assay type: in vivo, Ipomoea hederacea Jacq.; conditions: post-emergence, 480 h
Excerpt: Seeds or nutlets of the desired test plant species were planted in a soil matrix prepared by mixing a loam or sandy loam soil (e.g., 28.6 percent silt, 18.8 percent clay, and 52.6 percent sand, with a pH of about 5.8 and an organic matter content of about 1.8 percent) and calcareous grit in an 80 to 20 ratio. The soil matrix was contained in plastic pots with a volume of 1 quart and a surface area of 83.6 square centimeters (cm^2). When required to ensure good germination and healthy plants, a fungicide treatment and/or other chemical or physical treatment was applied. The plants were grown for 8-22 days in a greenhouse with an approximate 14 h photoperiod which was maintained at about 29° C. during the day and 26° C. during the night. Nutrients (Peters Excel® 15-5-15 5-Ca 2-Mg and iron chelate) were applied in the irrigation solution as needed and water was added on a regular basis. Supplemental lighting was provided with overhead metal halide 1000-Watt lamps as necessary. The plants were employed for testing when they reached the first through fourth true leaf stage.
Treatments consisted of the acid or esters of 4-amino-3-chloro-5-fluoro-6-(4-chloro-2-fluoro-3-methoxy-phenyl) pyridine-2-carboxylic acid (Compound A), each formulated as an SC (suspension concentrate), and various herbicidal components alone and in combination. Forms of compound A were applied on an acid equivalent basis.
Other herbicidal components were applied on an active ingredient basis and included Photosystem II (PSII)-inhibiting herbicides propanil formulated as Stam® M4 EC, bentazon-sodium formulated as Basagran®, atrazine formulated as Atrazine 90 WDG, bromoxynil octanoate ester formulated as Buctril®, simetryne (technical grade material), simazine formulated as Princep® Caliber 90, ioxynil (technical grade material), cyanazine (technical grade material), and hexazinone (technical grade material).
Treatment requirements were calculated based upon the rates being tested, the concentration of active ingredient or acid equivalent in the formulation, and a 12 mL application volume at a rate of 187 L/ha.
For treatments comprised of formulated compounds, measured amounts of compounds were placed individually in 25 mL glass vials and diluted in a volume of 1.25% (v/v) Agri-Dex® crop oil concentrated to obtain 12× stock solutions. […] Application solutions were prepared by adding an appropriate amount of each stock solution (e.g., 1 mL) and diluted to the appropriate final concentrations with the addition of 10 mL of an aqueous mixture of 1.25% (v/v) crop oil concentrate so that the final spray solutions contained 1.25+/−0.05% (v/v) crop oil concentrate.
For treatments comprised of technical compounds, weighed amounts can be placed individually in 25 mL glass vials and dissolved in a volume of 97:3 v/v acetone/DMSO to obtain 12× stock solutions. […] Application solutions can be prepared by adding an appropriate amount of each stock solution (e.g., 1 mL) and diluted to the appropriate final concentrations with the addition of 10 mL of an aqueous mixture of 1.5% (v/v) crop oil concentrate so that the final spray solutions contain 1.25% (v/v) crop oil concentrate. When technical materials are used, the concentrated stock solutions can be added to the spray solutions so that the final acetone and DMSO concentrations of the application solutions are 16.2% and 0.5%, respectively.
For treatments comprised of formulated and technical compounds, weighed amounts of the technical materials were placed individually in 25 mL glass vials and dissolved in a volume of 97:3 v/v acetone/DMSO to obtain 12× stock solutions, and measured amounts of the formulated compounds were placed individually in 25 mL glass vials and diluted in a volume of 1.5% (v/v) crop oil concentrate or water to obtain 12× stock solutions. […]

[2] = test system: SCPMA (Schoenoplectus maritimus, sea clubrush); assay: In-water applied mixtures, transplanted paddy rice, greenhouse; assay type: in vivo, Schoenoplectus maritimus (L.) Lye; conditions: 20 DAA
Protocol: (§1) Weed seeds or nutlets of the desired test plant species were planted in puddled soil (mud) prepared by mixing a shredded, non-sterilized mineral soil (50.5 percent silt, 25.5 percent clay, and 24 percent sand, with a pH of about 7.6 and an organic matter content of about 2.9 percent) and water at a 1:1 volumetric ratio. The prepared mud was dispensed in 365 mL aliquots into 16-ounce (oz.) non-perforated plastic pots with a surface area of 86.59 square centimeters (cm^2) leaving a headspace of 3 centimeters (cm) in each pot Mud was allowed to dry overnight prior to planting or transplanting. Rice seeds were planted in Sun Gro MetroMix® 306 planting mixture, which typically has a pH of 6.0 to 6.8 and an organic matter content of about 30 percent, in plastic plug trays. Seedlings at the second or third leaf stage of growth were transplanted into 840 mL of mud contained in 32-oz. non-perforated plastic pots with a surface area of 86.59 cm^2 4 days prior to herbicide application. The paddy was created by filling the headspace of the pots with 2.5 to 3 cm of water. When required to ensure good germination and healthy plants, a fungicide treatment and/or other chemical or physical treatment was applied. The plants were grown for 4-22 days in a greenhouse with an approximate 14 h photoperiod which was maintained at about 29° C during the day and 26° C. during the night. Nutrients were added as Osmocote® (19:6:12, N:P:K+ minor nutrients) at 2 g per 16-oz. pot and 4 g per 32-oz. pot. Water was added on a regular basis to maintain the paddy flood, and supplemental lighting was provided with overhead metal halide 1000-Watt lamps as necessary. The plants were employed for testing when they reached the first through fourth true leaf stage.
(§2) Treatments consisted of the acid or esters of 4-amino-3-chloro-5-fluoro-6-(4-chloro-2-fluoro-3-methoxy-phenyl)pyridine-2-carboxylic acid (compound A) each formulated as an SC (suspension concentrate) and various herbicidal components alone and in combination. Forms of compound A were applied on an acid equivalent basis.
(§3) Other herbicidal components were applied on an active ingredient basis and included photosystem II (PSII)-inhibits propanil formulated as […] bentazon-sodium formulated as Basagran®, and simetryne (technical grade material).
(§4) Treatment requirements for each compound or herbicidal component were calculated based upon the rates being tested, the concentration of active ingredient or acid equivalent in the formulation, an application volume of 2 mL per component per pot, and an application area of 86.59 cm^2 per pot.
(§5) For formulated compounds, a measured amount was placed in an individual 100 or 200 mL glass vial and was dissolved in a volume of 1.25% (v/v) Agri-Dex® crop oil concentrate to obtain application solutions.
(§6) For technical grade compounds, a weighed amount was placed in an individual 100 to 200 mL glass vial and was dissolved in a volume of acetone to obtain concentrated stock solutions. […] The concentrated stock solutions obtained were diluted with an equivalent volume of an aqueous mixture containing 2.5% (v/v) crop oil concentrate so that the final application solutions contained 1.25% (v/v) crop oil concentrate.
(§7) Applications were made by injecting with a pipetter appropriate amounts of the application solutions, individually and sequentially, into the aqueous layer of the paddy. Control plants were treated in the same manner with the solvent blank. Applications were made so that all treated plant material received the same concentrations of acetone and crop oil concentrate.
(§8) The treated plants and control plants were placed in a greenhouse as described above and water was added as needed to maintain a paddy flood. After approximately 3 weeks the condition of the test plants as compared with that of the untreated plants was determined visually and scored on a scale of 0 to 100 percent where 0 corresponds to no injury or growth inhibition and 100 corresponds to complete kill. […]

[3] = test system: ECHOR (Echinochloa oryzoides, early watergrass); assay: as above; assay type: in vivo, Echinochloa oryzoides (Ard.) Fritsch; conditions: 70 g ae/ha; 20 DAA
Protocol: as §1, §2, §3, §4, §5, §6, §7, §8

CCCCOC(=O)c1nc(-c2ccc(Cl)c(OC)c2F)c(F)c(N)c1Cl [Compound A n-Butyl Ester]
pest or weed control at 16 g/ha ([1]; read-out: Visual Weed Control (%) Obs, 16 g ae/ha, 20 DAA): 15%
pest or weed control at 17.5 g/ha ([1]; read-out: Visual Weed Control (%) Obs, 17.5 g ae/ha, 20 DAA): 48%
Visual Weed Control (%) Obs ([2]; 35 g ae/ha): 0%
Visual Weed Control (%) Obs ([2]; 70 g ae/ha): 0%
Visual Weed Control (%) Obs [3]: 40%
